SMILES strings stand for the structures. pKd: −log10 of the molar value. In brackets after ≈: the same amount, converted by molar mass. Like-named read-outs stand apart in the source and are kept apart here.

20 molecules from patent US11524945B2, “Compounds for treating ILK-mediated diseases” (The Cleveland Clinic Foundation, priority 2018, dated 2022) can be followed below.

One data set can be described thus: Stability in rat plasma. The format is in vitro ADME.
In another data set the target is purified recombinant ILK (Homo sapiens (Human), UniProt Q13418). As to the kind of experiment: ILK binding affinity, EnSpire fluorescence intensity. As to conditions: for Binding Difference ILK (Kd)/EGFR (Kd) / pKd: EnSpire fluorescence intensity; for pKd: read-out: ILK - Binding affinity; for binding to purified ILK: fluorescence-based method.
Sequence of purified recombinant ILK (Q13418 whole entry): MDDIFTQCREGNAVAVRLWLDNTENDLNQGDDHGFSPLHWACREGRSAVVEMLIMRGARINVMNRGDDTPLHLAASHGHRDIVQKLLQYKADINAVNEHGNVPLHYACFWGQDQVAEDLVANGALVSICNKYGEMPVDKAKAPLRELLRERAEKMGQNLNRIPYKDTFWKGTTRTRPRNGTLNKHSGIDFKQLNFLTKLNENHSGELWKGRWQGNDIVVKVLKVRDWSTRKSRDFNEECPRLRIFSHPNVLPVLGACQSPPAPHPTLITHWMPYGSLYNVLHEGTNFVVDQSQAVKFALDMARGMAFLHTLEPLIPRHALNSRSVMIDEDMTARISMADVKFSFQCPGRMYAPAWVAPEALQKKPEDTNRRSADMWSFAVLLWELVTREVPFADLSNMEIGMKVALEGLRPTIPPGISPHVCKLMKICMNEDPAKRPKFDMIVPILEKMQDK
The nature of data set [1]: Stability in human plasma. In kind it is in vitro ADME.
The nature of data set [2]: Stability in mouse plasma. In kind it is in vitro ADME.
Data set [3] in a line: Permeability in Caco2 cell line. The format is in vitro ADME. As to conditions: human; for efflux ratio / Papp A→B / Papp B→A: Caco-2; for efflux ratio: Caco2; for Papp A→B: Caco2, A-B; for Papp B→A: Caco2, B-A.
A further data set deals with CYP 2C8 (Homo sapiens (Human), UniProt P10632). Briefly: CYP inhibition in human liver microsomes, 2C8. The format is in vitro ADME.
Sequence of CYP 2C8 (P10632 whole entry): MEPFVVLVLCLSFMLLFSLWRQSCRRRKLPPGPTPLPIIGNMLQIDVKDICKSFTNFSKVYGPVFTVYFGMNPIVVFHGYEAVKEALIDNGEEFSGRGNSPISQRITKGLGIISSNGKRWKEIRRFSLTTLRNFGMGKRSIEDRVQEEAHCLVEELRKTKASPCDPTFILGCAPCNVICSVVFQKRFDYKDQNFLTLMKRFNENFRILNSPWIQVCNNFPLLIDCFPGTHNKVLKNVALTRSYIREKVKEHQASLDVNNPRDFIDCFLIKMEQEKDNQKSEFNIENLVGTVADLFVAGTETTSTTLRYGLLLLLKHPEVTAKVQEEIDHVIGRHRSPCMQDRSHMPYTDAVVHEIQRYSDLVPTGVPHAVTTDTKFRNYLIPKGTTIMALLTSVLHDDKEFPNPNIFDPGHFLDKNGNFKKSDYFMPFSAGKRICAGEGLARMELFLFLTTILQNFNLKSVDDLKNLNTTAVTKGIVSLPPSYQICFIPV
Another data set has as its target ILK (Homo sapiens (Human), UniProt Q13418). As to the kind of experiment: ILK binding affinity, Nanotemper.
Data set [4] can be described thus: Stability in PBS at pH 7.4. In kind it is physicochemical.
A short description of a further data set: Stability in SIF. In kind it is physicochemical.
The next data set concerns the target CYP 2A6 (Homo sapiens (Human), UniProt P11509). Briefly: CYP inhibition in human liver microsomes, 2A6. In kind it is in vitro ADME.
The test system of another data set is HepG2 cells. Briefly: Mitochondrial toxicity in HepG2 cells. The format is cell-based. As to conditions: HepG2 cells; for Fold change in IC50: Glucose vs Galactose; for IC50: Homo sapiens.
For a further data set, the target named is EGFR (Homo sapiens (Human), UniProt P00533). Briefly: EGFR binding affinity, Nanotemper.
Sequence of EGFR (P00533 25-1210): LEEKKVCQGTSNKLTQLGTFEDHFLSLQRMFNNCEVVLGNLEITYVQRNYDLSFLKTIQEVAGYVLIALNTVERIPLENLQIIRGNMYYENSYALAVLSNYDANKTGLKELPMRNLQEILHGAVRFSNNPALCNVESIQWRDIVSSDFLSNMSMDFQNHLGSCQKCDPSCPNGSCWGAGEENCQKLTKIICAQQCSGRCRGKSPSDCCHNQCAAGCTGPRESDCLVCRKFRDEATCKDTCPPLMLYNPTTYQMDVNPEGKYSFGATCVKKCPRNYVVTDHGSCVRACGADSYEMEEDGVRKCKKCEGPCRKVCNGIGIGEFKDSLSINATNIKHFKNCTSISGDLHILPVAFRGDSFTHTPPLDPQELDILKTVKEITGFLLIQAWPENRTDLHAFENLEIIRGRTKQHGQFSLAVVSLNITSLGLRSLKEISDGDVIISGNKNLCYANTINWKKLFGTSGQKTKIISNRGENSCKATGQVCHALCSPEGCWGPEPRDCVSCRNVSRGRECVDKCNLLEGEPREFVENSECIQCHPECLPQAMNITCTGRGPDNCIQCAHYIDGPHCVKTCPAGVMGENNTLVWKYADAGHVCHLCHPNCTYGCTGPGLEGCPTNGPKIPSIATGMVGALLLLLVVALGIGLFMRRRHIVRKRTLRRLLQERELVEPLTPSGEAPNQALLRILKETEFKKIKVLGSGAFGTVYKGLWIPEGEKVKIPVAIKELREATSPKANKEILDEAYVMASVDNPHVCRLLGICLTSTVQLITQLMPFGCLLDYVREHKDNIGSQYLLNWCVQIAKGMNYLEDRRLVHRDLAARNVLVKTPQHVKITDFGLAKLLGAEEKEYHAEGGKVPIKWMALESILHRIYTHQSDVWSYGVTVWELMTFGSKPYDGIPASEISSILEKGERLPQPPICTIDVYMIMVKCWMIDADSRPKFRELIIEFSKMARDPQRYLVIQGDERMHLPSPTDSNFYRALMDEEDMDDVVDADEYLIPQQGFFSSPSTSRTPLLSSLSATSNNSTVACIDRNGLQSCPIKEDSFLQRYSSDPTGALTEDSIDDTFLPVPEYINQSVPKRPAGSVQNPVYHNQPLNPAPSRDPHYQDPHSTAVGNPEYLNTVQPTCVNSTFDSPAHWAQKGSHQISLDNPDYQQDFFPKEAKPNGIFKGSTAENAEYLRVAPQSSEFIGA
Data set [5] in a line: Solubility in PBS at pH 7.4. In kind it is physicochemical. As to conditions: aqueous buffer.
Data set [6] is described as follows: Protein binding in human plasma. In kind it is in vitro ADME.
Data set [7] in a line: Protein binding in rat plasma. In kind it is in vitro ADME.
The nature of data set [8]: Protein binding in mouse plasma. The format is in vitro ADME.
Setting [9] is: Caco-2, Caco2, AP-BL, read-out: Recovery (%)AP-BL.
The mark [10] stands for this setting: Caco-2, Caco2, BL-AP, read-out: Recovery (%)BL-AP.
The mark [11] stands for this setting: Nanotemper, read-out: ILK - Binding affinity.
Where [12] appears, read: Galactose, read-out: IC50 (μM)_Galactose.
[13] abbreviates: Glucose, read-out: IC50 (μM)_Glucose.
Setting [14] is: Nanotemper, read-out: EGFR - Binding affinity.

Sequence of ILK (Q13418 whole entry): as the sequence (Q13418 whole entry) above
Sequence of CYP 2A6 (P11509 whole entry): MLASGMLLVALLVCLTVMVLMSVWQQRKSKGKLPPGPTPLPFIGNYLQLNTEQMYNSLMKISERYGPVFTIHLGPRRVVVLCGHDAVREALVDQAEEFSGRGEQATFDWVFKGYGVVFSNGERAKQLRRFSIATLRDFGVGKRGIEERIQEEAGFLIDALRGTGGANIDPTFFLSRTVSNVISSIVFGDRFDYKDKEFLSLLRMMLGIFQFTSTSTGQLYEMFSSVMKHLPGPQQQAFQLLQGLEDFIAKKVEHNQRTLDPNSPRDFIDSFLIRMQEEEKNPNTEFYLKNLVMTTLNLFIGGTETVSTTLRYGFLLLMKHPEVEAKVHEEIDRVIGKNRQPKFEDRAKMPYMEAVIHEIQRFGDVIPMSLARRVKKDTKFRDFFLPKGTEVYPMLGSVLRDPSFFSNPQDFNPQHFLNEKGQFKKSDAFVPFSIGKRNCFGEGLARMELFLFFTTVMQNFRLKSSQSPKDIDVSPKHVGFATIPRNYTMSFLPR

Regarding `CC[C@H](C)C(=O)O[C@H]1C[C@@H](C)C=C2C=C[C@H](C)[C@H](CC[C@@H]3C[C@@H](O)CC(=O)O3)[C@H]21` [Mevinolin, reference compound], the “Remaining Percentage (%)” value was 100.00% in the data set “Stability in rat plasma” (0 min); 3.78% in the data set “Stability in rat plasma” (15 min); 0.00% in “Stability in rat plasma” (30 min); 0.00% in the data set “Stability in rat plasma” (45 min); 0.00% in the data set “Stability in rat plasma” (60 min); 0.00% in the data set “Stability in rat plasma” (120 min).

As for `C#Cc1cc(Nc2ncnc3cc(OCCOC)c(OCCOC)cc23)ccc1C` [Erlotinib-4-methylphenyl analog (E4ME)], at purified recombinant ILK, the “Binding Difference ILK (Kd)/EGFR (Kd)” value stood at 2.075 and the pKd is 5.81.

For `CC(C)[N+](C)(CCOC(=O)C1c2ccccc2Oc2ccccc21)C(C)C` [Propantheline, reference compound], the “Remaining Percentage (%)” value worked out at 100.00% in data set [1] (0 min); 54.01% in data set [1] (15 min); 26.58% in data set [1] (30 min); 9.84% in data set [1] (45 min); 3.10% in [1] (60 min); 0.13% in [1] (120 min). The “Remaining Percentage (%)” value is listed as 100.00% in data set [2] (0 min); 74.15% in data set [2] (15 min); 64.03% in [2] (30 min); 48.07% in data set [2] (45 min); 37.61% in data set [2] (60 min); 14.60% in data set [2] (120 min).

Regarding `CC(C)NCC(O)COc1cccc2ccccc12` (stereo not drawn) [Propranolol], the recovery in data set [3] (setting [9]) stood at 60.8%. In [3] (setting [10]), the recovery was determined as 80%. Moreover, in data set [3], the efflux ratio was determined as 0.82, the Papp A→B was determined as 19.5 ×10⁻⁶ cm/s and the Papp B→A stood at 15.9 ×10⁻⁶ cm/s.

For the molecule `CC1=NN(C(=O)CC(=O)Nc2ccc(C)cc2)C(=O)C1/N=N/c1cccc(C(=O)O)c1` (stereo not drawn) [QLT0267-like compound (QLT0267), reference compound], the “binding to purified ILK” value at purified recombinant ILK is “no detectable binding”.

For the molecule `C=C[C@H]1C[N@@]2CC[C@H]1C[C@@H]2[C@@H](O)c1ccnc2ccc(OC)cc12` [Quinidine, reference compound], inhibition at CYP 2C8 was half-maximal at 3.72 µM (IC50).

As for `CNC(=O)CCc1cc(-c2ccc(-c3ccc(C(F)(F)F)cc3)cc2)n(-c2ccc(N3CCNCC3)cc2)n1` [Compound 22, reference compound], the “binding to purified ILK” value at purified recombinant ILK is listed as “no detectable binding”.

As for `C#Cc1cc(Nc2ncnc3cc(OCCOC)c(OCCOC)cc23)cc(OCCOC)c1` [Compound 7], the pKd at ILK (setting [11]) was 5.61.

On to `O=C(O)CCCc1ccc(N(CCCl)CCCl)cc1` [Chlorambucil, reference compound], for which the “Remaining Percentage (%)” value in [4] (PBS pH 7.4, 0 min) was found to be 100.00%; in data set [4] (PBS pH 7.4, 30 min), 37.17%; in data set [4] (PBS pH 7.4, 60 min), 11.53%; in data set [4] (PBS pH 7.4, 120 min) it was 2.35%; in data set [4] (PBS pH 7.4, 180 min), 0.09%; in [4] (PBS pH 7.4, 240 min) it was 0.03%. The “Remaining Percentage (%)” value in the data set “Stability in SIF” (0 min) amounted to 100.00%; in “Stability in SIF” (30 min), 58.85%; in “Stability in SIF” (60 min) it was 33.12%; in “Stability in SIF” (120 min), 8.26%; in “Stability in SIF” (180 min), 2.57%; in the data set “Stability in SIF” (240 min) it was 0.79%.

On to `CN1Cc2c(ccc3c2OCO3)C2C(O)Cc3cc4c(cc3C21)OCO4` (stereo not drawn) [Chelidonine, reference compound], for which the “binding to purified ILK” value at purified recombinant ILK is on record as “no detectable binding”.

In turn, `N[C@@H]1C[C@H]1c1ccccc1` (racemic) [Tranylcypromine, reference compound] displayed an IC50 at CYP 2A6 of 0.69 µM.

Take `C#Cc1cc(C#C)cc(Nc2ncnc3cc(OC)c(OC)cc23)c1` [Compound 4]: on purified recombinant ILK, the “Binding Difference ILK (Kd)/EGFR (Kd)” value is 1.34 and the pKd was 5.81.

Regarding `C[C@@H]1CC[C@@]2(OC1)O[C@H]1[C@@H](O)[C@H]3[C@@H]4CC[C@H]5C[C@@H](O[C@@H]6O[C@H](CO)[C@H](O[C@@H]7O[C@H](CO)[C@@H](O)[C@H](O[C@@H]8OC[C@@H](O)[C@H](O)[C@H]8O)[C@H]7O[C@@H]7O[C@H](CO)[C@H](O)[C@H](O[C@@H]8O[C@H](CO)[C@@H](O)[C@H](O)[C@H]8O)[C@H]7O)[C@H](O)[C@H]6O)[C@H](O)C[C@]5(C)[C@H]4CC[C@]3(C)[C@H]1[C@@H]2C` [Digitonin], in the data set on HepG2 cells, the “Fold change in IC50” value was determined as 2.40. Besides, the IC50 with HepG2 cells (setting [12]) was determined as 1.79 µM; in the data set with HepG2 cells (setting [13]), 4.3 µM.

Consider `C#Cc1cc(Nc2ncnc3cc(OCCOC)c(OCCOC)cc23)cc(OCCOCC)c1` [Compound 8], for which the “Binding Difference ILK (Kd)/EGFR (Kd)” value on ILK (Nanotemper) came to 0.1043. In addition, the pKd on ILK (Nanotemper (Table 1), read-out: KD to ILK) was about 6.04; at ILK (setting [11]), 6.04; on EGFR (Nanotemper (Table 1), read-out: KD to EGFR), about 5.05; on EGFR (setting [14]), 5.05.

`CCc1nn(CCCN2CCN(c3cccc(Cl)c3)CC2)c(=O)n1CCOc1ccccc1` [Nefazodone]: the “Fold change in IC50” value with HepG2 cells is recorded as 11.33. Moreover, the IC50 in the data set with HepG2 cells (setting [12]) was found to be 6.82 µM; in the data set on HepG2 cells (setting [13]), 77.2 µM.

On to `COc1cc2nc(N3CCN(C(=O)c4ccco4)CC3)nc(N)c2cc1OC` [Prazosin], for which the values for the recovery in data set [3] (setting [9]) and in data set [3] (setting [10]) were 85.1% and 99%, respectively. Moreover, the efflux ratio in data set [3] came to 2.41. Besides, the Papp B→A in [3] was found to be 30.1 ×10⁻⁶ cm/s.

As to `C[C@H]1O[C@@H](O[C@H]2[C@@H](O)C[C@H](O[C@H]3[C@@H](O)C[C@H](O[C@H]4CC[C@@]5(C)[C@H](CC[C@@H]6[C@@H]5C[C@@H](O)[C@]5(C)[C@@H](C7=CC(=O)OC7)CC[C@]65O)C4)O[C@@H]3C)O[C@@H]2C)C[C@H](O)[C@@H]1O` [Digoxin], the recovery in [3] (setting [9]) was 87.9%. In addition, the recovery in data set [3] (setting [10]) is 96.5%. For the same molecule, in data set [3], the efflux ratio was found to be 27, the Papp A→B is 0.61 ×10⁻⁶ cm/s and the Papp B→A stood at 16.6 ×10⁻⁶ cm/s.

`CC(=O)[C@H]1CC[C@H]2[C@@H]3CCC4=CC(=O)CC[C@]4(C)[C@H]3CC[C@]12C` [Progesterone, reference compound]: the solubility in [5] stood at 13.9 µM (≈ 4.36 µg/mL).

For `CC(=O)N1CCN(c2ccc(OCC3COC(Cn4ccnc4)(c4ccc(Cl)cc4Cl)O3)cc2)CC1` (stereo not drawn) [Ketoconazole, reference compound], the “% Bound” value in data set [6] is given as 98.33%; in data set [7] it was 99.63%; in data set [8], 99.33%. The “% Recovery” value came to 101.01% in data set [6], 100.83% in [7] and 104.25% in data set [8].

As to `C#Cc1cc(Nc2ncnc3cc(OCCOC)ccc23)cc(OCCOC)c1` [Compound 1 New], at ILK (Nanotemper), the “Binding Difference ILK (Kd)/EGFR (Kd)” value stood at 0.5414. In addition, the figures for the pKd at ILK (setting [11]) and at EGFR (setting [14]) were 5.16 and 4.90, respectively.
